Test results published in patent US7906547B2, “Azabicylic compounds, a process for their preparation and pharmaceutical compositions containing them” (Les Laboratoires Servier, priority 2008, dated 2011).
Counter-ions that a name gives are not always drawn.

Legend:
NMRI mouse [1] = assay: Tail suspension test in the NMRI mouse; assay type: in vivo; details: 10 mg/kg IP 24 hours and 30 minutes before suspension, 6 minutes
Protocol: The tail suspension test in the mouse (Porsolt et al., Arch. Int. Pharmacodyn., 1987, 288, 11) enables detection of psychopharmacological properties of compounds. NMRI mice are suspended by the tail, with the aid of a piece of adhesive tape, from a hook for 6 minutes: the immobility time is measured automatically with the aid of movement sensors. The animals are treated, by the intraperitoneal route, with the compounds of the invention or their carriers 24 hours and 30 minutes before they are suspended.

Wistar rat [2] = assay: Interaction with barbital in the Wistar rat; assay type: in vivo; details: 30 mg/kg PO 30 minutes before barbital 170 mg/kg IP, sleep measured for 4 hours
Protocol: The objective of this test is to determine the anti-sedative, awakening and/or anti-hypnotic properties of the compounds of the present invention. The rats are placed in individual cages and are given an injection of barbital (170 mg/kg IP). The duration of sleep is then measured for 4 hours after the injection of barbital, determined on the basis of loss of the righting reflex. The compounds of the invention or their carriers are administered by the oral route 30 minutes before the administration of barbital.

[3] = molecular target: T1, type H3 central histamine receptors (Mus musculus, UniProt P58406); assay: Cerebral levels of Nτ-methylhistamine in the NMRI mouse (ex vivo H3 antagonist activity); details: one hour after treatment, vs carrier
T1 construct: the brains are removed, frozen in liquid nitrogen, weighed and homogenised; from tissue; host or cells: brain of living NMRI mice (oral dosing)
Protocol: The purpose of this study, which was carried out in accordance with the method of Taylor et al. (Biochem. Pharm., 1992, 44, 1261-1267), is to evaluate the ex vivo activity of the compounds of the present invention as antagonists of type H3 central histamine receptors. […] An increase in the cerebral concentrations of N^τ-methylhistamine indicates an increase in the turn-over of histamine by blockage of the type H3 central histamine receptors.
NMRI mice (18-20 g) are treated with compounds of the present invention or with their carrier (20 ml/kg) by the oral route. One hour after the pharmacological treatment, the animals are sacrificed; the brains are removed, frozen in liquid nitrogen, weighed and homogenised in 0.1N HClO4 at 4° C. The homogenised products are centrifuged (15 000 g, 17 min, 4° C.). The supernatants are recovered and divided into aliquots. The aliquots are frozen in liquid nitrogen and stored at −80° C. until they are analysed.
Determination of the cerebral levels of N^τ-methylhistamine is carried out by capillary electrophoresis. The tissue levels of N^τ-methylhistamine are expressed in μg/g of fresh brain. The comparison of the cerebral levels of N^τ-methylhistamine between animals treated with the carrier (controls) and animals treated with compounds of the present invention is carried out by single-factor variance analysis followed, if necessary, by a complementary analysis (Dunnett's test).

NMRI mouse [4] = assay: Marble-burying test in the NMRI mouse; assay type: in vivo; details: 30 mg/kg IP 30 minutes before test, 30 minutes period
Protocol: The spontaneous marble-burying behaviour in the mouse is a very sensitive empirical test for antidepressant compounds (Sanchez and Meier, Psychopharmacology, 1997; 129: 197-205; Nicolas and Prinssen, Eur. J. Pharmacol., 2006, 547: 106-115). The mice are placed in individual cages in which there are 24 marbles and the number of marbles buried by each animal is determined for a period of 30 minutes. The animals are treated by the intraperitoneal route with the compounds of the present invention or their carriers 30 minutes before placing the animals in the cage containing marbles.

NMRI mouse [5] = assay: Forced swimming test in the NMRI mouse; assay type: in vivo; details: 30 mg/kg IP 30 minutes before test, final 4 minutes of 6
Protocol: The forced swimming test is very widely used for detecting the antidepressant properties of compounds (Porsolt et al., Arch. Int. Pharmacodyn., 1977, 229, 327-336). The animals are placed for 6 minutes in cylinders filled with water (14 cm) and the immobility time is measured for the final 4 minutes by a video-tracking system. The compounds of the present invention or their carriers are administered by the intraperitoneal route 30 minutes before the mice are placed in the cylinder.

Wistar rat [6] = assay: Electroencephalogram recordings in the awake Wistar rat; assay type: in vivo; details: 3 mg/kg IP
Protocol: Electrodes are chronically implanted in adult male Wistar rats, being located at the surface of the frontal and parietal cortex. Cortical electroencephalogram (EEG) recordings are made in the rats placed in cages in a sound-proofed room. The compounds and carriers are administered in randomised manner by the intraperitoneal route at 10 o'clock on the same days with a minimum of 3 days between each administration, allowing each rat to be used as its own control. The absolute power of the slow delta activities (1-4 Hz), which predominate during slow sleep and disappear during wakefulness and paradoxical sleep, is averaged over successive periods of 30 minutes. Over 30 minutes, high and low values for the power of the slow delta activities are signs of […], respectively.

Sprague-Dawley rat = assay: Object recognition in the Sprague-Dawley rat; assay type: in vivo; details: 0.3 mg/kg PO, 60 minutes before each session, 24 hours between sessions
From the text: The object recognition test in the Sprague-Dawley rat (Behav. Brain Res., 1988, 31, 47-59) is based on the spontaneous exploratory activity of the animal and has the characteristics of episodic memory in humans. This memory test is sensitive to ageing (Eur. J. Pharmacol., 1997, 325, 173-180) and to cholinergic dysfunctions (Pharm. Biochem. Behav. 1996, 53(2), 277-283) and is based on the differences in the exploration of 2 objects of fairly similar shape—one familiar, the other new. Prior to the test, the animals are habituated to the environment (an enclosure without an object). In the course of a first session, the rats are placed (3 minutes) in the enclosure, in which there are 2 identical objects. The duration of exploration is measured for each object. In the course of the second session (3 minutes), 24 hours later, 1 of the 2 objects is replaced by a new object. The duration of exploration is measured for each object. The assessment criterion is the difference, Delta, expressed in seconds, between the exploration times for the new object and for the familiar object in the course of the second session.

Wistar rat [7] = assay: Social recognition in the Wistar rat; assay type: in vivo; details: second encounter after 2 hours
From the text: Initially described in 1982 (J. Comp. Physiol., 1982, 96, 1000-1006), the social recognition test has subsequently been proposed by various authors (Psychopharmacology, 1987, 91, 363-368; Psychopharmacology, 1989, 97, 262-268) for studying the mnemocognitive effects of new compounds. The test is based on the natural expression of the olfactory memory of the rat and its natural tendency to forget and allows evaluation of memorisation, by recognition of a young congeneric animal, by an adult rat. A young rat (21 days), taken at random, is placed for 5 minutes in the cage housing an adult rat. With the aid of a video device, the experimenter observes the social recognition behaviour of the adult rat and measures its overall duration. The young rat is then removed from the adult rat's cage and is placed in its own cage until the second introduction. The adult rat is given the compound under test by the intraperitoneal route and, after 2 hours, is again brought into the presence (5 minutes) of the young rat. The social recognition behaviour is then observed again and its duration measured. The assessment criterion is the difference (T2−T1), expressed in seconds, between the “recognition” times of the 2 encounters.

T1 sequence (P58406 whole entry): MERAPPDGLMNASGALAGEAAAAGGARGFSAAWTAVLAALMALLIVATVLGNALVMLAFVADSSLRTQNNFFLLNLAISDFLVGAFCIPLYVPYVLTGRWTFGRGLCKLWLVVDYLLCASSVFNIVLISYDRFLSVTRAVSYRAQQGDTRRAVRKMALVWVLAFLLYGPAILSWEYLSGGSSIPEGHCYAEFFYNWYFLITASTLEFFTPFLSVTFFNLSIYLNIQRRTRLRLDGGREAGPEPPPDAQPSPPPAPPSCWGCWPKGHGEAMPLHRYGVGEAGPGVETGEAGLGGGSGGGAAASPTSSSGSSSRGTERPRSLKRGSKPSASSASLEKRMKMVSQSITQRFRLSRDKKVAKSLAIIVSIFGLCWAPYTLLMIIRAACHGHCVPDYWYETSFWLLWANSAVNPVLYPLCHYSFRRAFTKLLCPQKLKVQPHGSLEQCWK

Question: Which “reduction in the immobility time” value (NMRI mouse [1]) does the source give for `CC(=O)Nc1ccc(OCCCN2C[C@H]3C[C@H]3C2)cc1` [Example 4, N-(4-{3-[(1R,5S)-3-Azabicyclo[3.1.0]hex-3-yl]propoxy}phenyl)acetamide] here?
Answer: The value was 36%.

Question: `CN(C)C(=O)c1ccc(OCCCCN2C[C@H]3C[C@H]3C2)cc1.O=C(O)C(=O)O` [Example 8, 4-{4-[(1R,5S)-3-Azabicyclo[3.1.0]hex-3-yl]butoxy}-N,N-dimethyl-benzamide oxalate] was tested. Which “reduction of the duration of sleeping caused by barbital” value (Wistar rat [2]) did it give?
Answer: Its value is −79%.

Question: Which “reduction of the duration of sleeping caused by barbital” value (Wistar rat [2]) does the source give for `CNC(=O)c1ccc(OCCCCN2C[C@H]3C[C@H]3C2)cc1` [Example 12, 4-{4-[(1R,5S)-3-Azabicyclo[3.1.0]hex-3-yl]butoxy}-N-methylbenzamide] here?
Answer: The value was −55%.

Question: What does the source list for `CC(=O)Nc1ccc(OCCN2C[C@H]3C[C@H]3C2)cc1` [Example 5, N-(4-{2-[(1R,5S)-3-Azabicyclo[3.1.0]hex-3-yl]ethoxy}phenyl)acetamide]?
Answer: increase in endogenous cerebral concentrations of Nτ-methylhistamine ([3]; 10 mg/kg PO): 109%; increase in endogenous cerebral concentrations of Nτ-methylhistamine ([3]; 30 mg/kg PO): 200%; reduction of the duration of sleeping caused by barbital (Wistar rat [2]): −80%; decrease in the number of balls buried (NMRI mouse [4]): 49%; reduction in the immobility time (NMRI mouse [1]): 64%; reduction in immobility (NMRI mouse [5]): 32%

Question: `NC(=O)c1ccc(OCCCN2C[C@H]3C[C@H]3C2)cc1` [Example 1, 4-{3-[(1R,5S)-3-Azabicyclo[3.1.0]hex-3-yl]propoxy}-benzamide hydrochloride] was tested. Which “duration of the reduction in the power of the slow delta waves” value (Wistar rat [6]) did it give?
Answer: The value was 120 min.

Question: What about the “difference, Delta, between exploration times for the new object and the familiar object (second session)” value (Sprague-Dawley rat) of the same molecule?
Answer: The value was roughly 6 s.

Question: What about the “difference (T2−T1) between the recognition times of the 2 encounters” value (Wistar rat [7]; 1 mg/kg IP) of the same molecule?
Answer: Its value is 21 s.

Question: And the “difference (T2−T1) between the recognition times of the 2 encounters” value (Wistar rat [7]; 3 mg/kg IP)?
Answer: The value was 26 s.

Question: What about the “decrease in the number of balls buried” value (NMRI mouse [4]) of the same molecule?
Answer: Its value is 48%.

Question: What about the “reduction in the immobility time” value (NMRI mouse [1]) of the same molecule?
Answer: Its value is 59%.

Question: What about the reduction in immobility (NMRI mouse [5]) of the same molecule?
Answer: The reduction in immobility was 76%.

Question: `NC(=O)c1ccc(OCCN2C[C@H]3C[C@H]3C2)cc1` [Example 2, 4-{2-[(1R,5S)-3-Azabicyclo[3.1.0]hex-3-yl]ethoxy}benzamide] was tested. Which “decrease in the number of balls buried” value (NMRI mouse [4]) did it give?
Answer: Its value is 99%.

Question: What does the source list for `COCC(=O)Nc1ccc(OCCCN2C[C@H]3C[C@H]3C2)cc1` [Example 14, N-(4-{3-[(1R,5S)-3-Azabicyclo[3.1.0]hex-3-yl]propoxy}phenyl)-2-methoxyacetamide]?
Answer: increase in endogenous cerebral concentrations of Nτ-methylhistamine ([3]; 10 mg/kg PO): 124%; increase in endogenous cerebral concentrations of Nτ-methylhistamine ([3]; 30 mg/kg PO): 266%; reduction in the immobility time (NMRI mouse [1]): 36%

Question: For `CC(=O)N(C)c1ccc(OCCCN2C[C@H]3C[C@H]3C2)cc1.Cl` [Example 13, N-(4-{3-[(1R,5S)-3-Azabicyclo[3.1.0]hex-3-yl]propoxy}phenyl)-N-methylacetamide hydrochloride], which “increase in endogenous cerebral concentrations of Nτ-methylhistamine” value ([3]; 10 mg/kg PO) is on record?
Answer: The value was 135%.

Question: And the “increase in endogenous cerebral concentrations of Nτ-methylhistamine” value ([3]; 30 mg/kg PO)?
Answer: Its value is 303%.

Question: And the “duration of the reduction in the power of the slow delta waves” value (Wistar rat [6])?
Answer: Its value is 120 min.

Question: And the “effect on power of the slow delta waves (1-4 Hz), cortical EEG” value (Wistar rat [6])?
Answer: Its value is “significant reduction”.

Question: What about the “reduction in the immobility time” value (NMRI mouse [1]) of the same molecule?
Answer: Its value is 53%.

Question: What does the source list for `COCC(=O)Nc1ccc(OCCN2C[C@H]3C[C@H]3C2)cc1` [Example 15, N-(4-{2-[(1R,5S)-3-Azabicyclo[3.1.0]hex-3-yl]ethoxy}phenyl)-2-methoxyacetamide]?
Answer: reduction of the duration of sleeping caused by barbital (Wistar rat [2]): −76%; decrease in the number of balls buried (NMRI mouse [4]): 83%; reduction in the immobility time (NMRI mouse [1]): 77%; reduction in immobility (NMRI mouse [5]): 34%

Question: Which results are given for `CC(=O)Nc1ccc(OCCCCN2C[C@H]3C[C@H]3C2)cc1` [Example 6, N-(4-{4-[(1R,5S)-3-Azabicyclo[3.1.0]hex-3-yl]butoxy}phenyl)acetamide]?
Answer: increase in endogenous cerebral concentrations of Nτ-methylhistamine ([3]; 10 mg/kg PO): 106%; increase in endogenous cerebral concentrations of Nτ-methylhistamine ([3]; 30 mg/kg PO): 210%
